Experimental data taken from publication PMC3444501, “Therapeutic Effects of Astragaloside IV on Myocardial Injuries: Multi-Target Identification and Network Analysis” (PLoS ONE, 2012).

Legend:
calcineurin (CN) = tested on: T1, calcineurin (CN); assay: calcineurin activity kit (RII phosphopeptide, malachite green) in rat VSMCs after 24-h pretreatment; type: cell-based
T1 construct: gene Ppp3ca; with calcineurin B (CnB, regulatory subunit)

[1] = biological target: angiotensin-converting enzyme (ACE) (Homo sapiens, UniProt P12821); assay: ACE activity of HUVECs (hippuric acid release from HHL) after 20-min incubation with AGS-IV; type: cell-based
angiotensin-converting enzyme (ACE), sequence (P12821 30-1306): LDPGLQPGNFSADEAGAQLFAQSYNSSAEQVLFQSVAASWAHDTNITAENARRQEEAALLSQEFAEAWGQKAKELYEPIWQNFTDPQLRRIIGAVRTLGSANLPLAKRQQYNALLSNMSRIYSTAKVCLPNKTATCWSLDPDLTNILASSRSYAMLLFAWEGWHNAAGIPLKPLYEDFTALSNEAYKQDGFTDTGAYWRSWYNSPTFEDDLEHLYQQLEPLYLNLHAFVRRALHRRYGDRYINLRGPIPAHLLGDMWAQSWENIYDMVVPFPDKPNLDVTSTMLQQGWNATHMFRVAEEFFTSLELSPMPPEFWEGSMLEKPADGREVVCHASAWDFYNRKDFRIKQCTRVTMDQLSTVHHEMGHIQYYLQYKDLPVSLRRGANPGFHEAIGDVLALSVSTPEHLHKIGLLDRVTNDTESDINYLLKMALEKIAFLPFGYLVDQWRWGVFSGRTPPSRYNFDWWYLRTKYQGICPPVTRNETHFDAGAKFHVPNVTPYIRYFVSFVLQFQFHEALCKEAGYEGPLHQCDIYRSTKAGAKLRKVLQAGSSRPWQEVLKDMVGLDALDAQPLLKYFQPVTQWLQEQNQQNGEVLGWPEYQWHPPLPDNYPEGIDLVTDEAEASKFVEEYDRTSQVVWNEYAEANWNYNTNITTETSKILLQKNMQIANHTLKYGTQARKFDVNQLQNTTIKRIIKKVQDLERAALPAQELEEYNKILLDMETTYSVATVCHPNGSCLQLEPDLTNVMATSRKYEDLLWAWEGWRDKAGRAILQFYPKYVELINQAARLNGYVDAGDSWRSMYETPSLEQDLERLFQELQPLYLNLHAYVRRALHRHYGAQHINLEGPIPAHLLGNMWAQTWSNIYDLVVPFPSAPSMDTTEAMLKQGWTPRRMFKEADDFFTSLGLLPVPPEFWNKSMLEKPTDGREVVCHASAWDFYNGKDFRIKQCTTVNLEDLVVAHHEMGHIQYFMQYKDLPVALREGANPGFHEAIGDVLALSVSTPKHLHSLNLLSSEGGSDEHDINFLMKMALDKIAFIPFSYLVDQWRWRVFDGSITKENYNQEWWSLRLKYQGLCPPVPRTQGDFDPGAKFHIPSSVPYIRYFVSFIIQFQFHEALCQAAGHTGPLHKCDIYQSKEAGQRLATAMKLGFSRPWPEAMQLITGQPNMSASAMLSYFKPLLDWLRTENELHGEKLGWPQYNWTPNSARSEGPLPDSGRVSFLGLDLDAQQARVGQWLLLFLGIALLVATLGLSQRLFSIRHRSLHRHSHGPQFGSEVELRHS

CC(C)(O)[C@@H]1CC[C@](C)([C@H]2[C@@H](O)C[C@@]3(C)[C@@H]4C[C@H](O[C@@H]5O[C@H](CO)[C@@H](O)[C@H](O)[C@H]5O)[C@H]5C(C)(C)[C@@H](O[C@@H]6OC[C@@H](O)[C@H](O)[C@H]6O)CC[C@@]56C[C@@]46CC[C@]23C)O1 [AGS-IV, Astragaloside IV]
IC50 (calcineurin (CN)): 403 nM
IC50 [1]: 268 nM
